In general, EC50 refers to the midpoint of the concentration-response curve.

This is an account of results in US20240208937A1, “Compounds and Their Use for Treatment of Hemoglobinopathies” (Bristol-Myers Squibb Company, priority 2022, published 2024).

Common to all, as to assay type: cell-based
Assay [1] concerns the target WIZ (Widely interspaced zinc finger) (Homo sapiens (Human), UniProt O95785+Q96SW2). Put plainly: HUDEP-2 WIZ HiBiT degradation assay. The conditions noted are these: HUDEP-2 WIZ HiBiT cells, 24 hours treatment, luminescence; for DC50: read-out: WIZ EC50. In short, it runs like this: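 HiBiT-tagged WIZ HUDEP-2 cells were seeded at 1.0×10^6 cells/ml in supplemented StemSpan SFEM II with doxycycline and treated 24 h at 37 °C. Remaining tagged protein was read by Nano-Glo HiBiT lytic luminescence. EC50 and Y-min were fitted after DMSO normalization across 10 concentrations, 10 to 0.0005 μM.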
A general note: The HiBiT peptide binds its large partner to form an active luciferase.

For assay [2], the target named is ZBTB7A (Zinc Finger And BTB Domain Containing 7A) (Homo sapiens (Human), UniProt O95365+Q96SW2). In words: HUDEP-2 ZBTB7A HiBiT degradation assay. As to conditions: HUDEP-2 ZBTB7A HiBiT cells, 24 hours treatment, luminescence; for DC50: read-out: ZBTB7A EC50. In short, it runs like this:
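HUDEP-2 cells carrying HiBiT-tagged ZBTB7A, grown 48 h in IMDM with EPO, SCF, insulin, transferrin, heparin, dox and 5% human plasma, then seeded at 1.0×10^6 cells/ml on pre-dispensed compound (10 concentrations, 10–0.0005 μM) for 24 h at 37 °C. Lytic HiBiT luminescence, DMSO-normalised, gave EC50 and Y-min.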

For assay [3], the system named is fetal hemoglobin (HbF) in GCSF-mobilized human CD34+ cells. Put plainly: HbF Induction Assay. As to conditions: 168 h; compound 1 μM, 7 days, erythroid-differentiated human CD34+ cells, flow cytometry; DMSO baseline 15% HbF positive cells. As to the method: The expansion, differentiation, and maturation of GCSF-mobilized human CD34^+ (STEMCELL Technologies Inc.) cells towards erythroid lineage cells were performed using a two-phase liquid culture model (Moutouh-de Parseval L A, el al. Pomalidomide and lenalidomide regulate erythropoiesis and fetal hemoglobin production in human CD34+ cells. J Clin Invest. 2008 January; 118(1):248-58). In the first phase, GCSF-mobilized human CD34^+ cells were cultured using StemSpan™-XF (STEMCELL Technologies Inc.) media supplemented with 1×BIT 9500, Penicillin-Streptomycin (50 U/mL), 100 ng/mL recombinant human (rh) SCF, 100 ng/mL rh Flt3-L, 20 ng/mL rh IL-3 and 10 ng/mL rh EPO and the growth of cells maintained in exponential phase for 7 days at 37° C. with 5% CO2 to support expansion and progenitor differentiation prior the second phase and treatment with compounds. In the second phase, culture media was changed to StemSpan™-XF media supplemented with 1×BIT 9500, Penicillin-Streptomycin (50 U/mL), 50 ng/mL rh SCF and 40 ng/mL rh EPO to promote further differentiation and maturation of the erythrocytes and to initiate treatment with compounds. Compounds were dispensed in duplicate at a final concentration of 1 μM in a final DMSO amount of 0.1%. Fresh compound was reapplied, and cell density was kept constant every 2 days. After 7 days, the cells were assessed for viability and fetal hemoglobin expression using flow cytometry. For viability analysis, eBioscience™ Fixable Viability Dye eFluor™ 780 (1:1000, eBioscience; Cat #65-0865-14) was added to the cells and kept in the dark for 10 minutes. For analysis of fetal hemoglobin (HbF), cells were fixed and permeabilized using Fixation Buffer (BioLegend; Cat #420801 and Intracellular staining permeabilization buffer (BioLegend, Cat #420201) following manufacturer's instructions. During permeabilization step, cells were stained with PE-labelled Mouse Anti-Human Fetal Hemoglobin (1:10, clone 2D12; BD Biosciences, Cat #BDB560041) incubated at room temperature for 20 minutes and protected from light. PE-labelled Mouse anti-IgG k, (1:10 clone MOPC-21; BD Biosciences, Cat# BDB551436) was used as an isotype control.
Viability, cell count, and fetal hemoglobin (HbF) levels were measured using an Attune NXT flow cytometer (Thermofisher) and the data analyzed using the FCS express software (De Novo Software). In Table 1 below, the effects of compounds of formula (I), formula (I′), formula (II), formula (II′), and formula (III) on % viable cells, viable cell count, on the % HbF positive cells and the median fluorescent intensity (MFI) of the HbF positive cell population compared to the DMSO controls can be viewed. All gates were set using the isotype negative control. The baseline % HbF positive cells for DMSO-treated control cells was 15%. Compounds of formula (I), formula (I′), formula (II), formula (II′), and formula (III) having HbF induction between 66% and 100% are level A. Compounds of formula (I), formula (I′), formula (II), formula (II′), and formula (III) having HbF induction between 33% and 66% are level B. Compounds of formula (I), formula (I′), formula (II), formula (II′), and formula (III) having HbF induction % less than 33% are level C. For certain compounds of formula (I), formula (I′), formula (II), formula (II′), and formula (III) % HbF induction values 0-33% (activity level C), between 33% and 66% (activity level B), and between 67% and 100% (activity level A) are shown in Table 2 below.
(In general: A flow cytometer gives signals particle by particle.)

Chain of ZBTB7A (Zinc Finger And BTB Domain Containing 7A) (O95365 whole entry, the tested form may be a part): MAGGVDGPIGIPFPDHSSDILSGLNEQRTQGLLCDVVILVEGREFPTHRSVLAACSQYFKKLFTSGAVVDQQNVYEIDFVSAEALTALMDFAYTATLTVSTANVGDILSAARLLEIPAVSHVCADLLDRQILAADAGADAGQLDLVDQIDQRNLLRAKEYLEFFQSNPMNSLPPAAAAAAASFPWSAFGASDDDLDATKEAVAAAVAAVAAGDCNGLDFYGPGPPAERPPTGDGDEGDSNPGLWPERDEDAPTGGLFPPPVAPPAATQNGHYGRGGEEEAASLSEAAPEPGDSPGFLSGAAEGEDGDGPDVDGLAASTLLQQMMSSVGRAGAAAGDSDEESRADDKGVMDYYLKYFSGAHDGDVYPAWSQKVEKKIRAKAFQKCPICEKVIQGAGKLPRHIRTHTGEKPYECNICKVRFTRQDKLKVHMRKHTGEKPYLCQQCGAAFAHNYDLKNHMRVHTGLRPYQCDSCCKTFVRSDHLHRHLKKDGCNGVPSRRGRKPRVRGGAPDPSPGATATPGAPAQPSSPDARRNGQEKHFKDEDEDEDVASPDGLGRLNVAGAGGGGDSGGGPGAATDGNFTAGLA
Chain of ZBTB7A (Zinc Finger And BTB Domain Containing 7A) (Q96SW2 whole entry, the tested form may be a part): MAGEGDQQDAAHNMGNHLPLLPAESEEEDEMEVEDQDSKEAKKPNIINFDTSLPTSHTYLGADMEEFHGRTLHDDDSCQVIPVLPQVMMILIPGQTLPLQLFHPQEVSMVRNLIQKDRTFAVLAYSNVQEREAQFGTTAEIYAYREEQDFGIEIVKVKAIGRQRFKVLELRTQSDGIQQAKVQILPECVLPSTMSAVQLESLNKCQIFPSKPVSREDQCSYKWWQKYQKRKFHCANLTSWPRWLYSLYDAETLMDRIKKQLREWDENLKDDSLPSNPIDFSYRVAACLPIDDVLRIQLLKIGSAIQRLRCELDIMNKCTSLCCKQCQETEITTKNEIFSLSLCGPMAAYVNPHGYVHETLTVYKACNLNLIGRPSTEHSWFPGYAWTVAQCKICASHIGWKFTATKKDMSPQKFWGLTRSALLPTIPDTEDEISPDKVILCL
Chain of ZBTB7A (Zinc Finger And BTB Domain Containing 7A) (Q16531 whole entry partner, the tested form may be a part): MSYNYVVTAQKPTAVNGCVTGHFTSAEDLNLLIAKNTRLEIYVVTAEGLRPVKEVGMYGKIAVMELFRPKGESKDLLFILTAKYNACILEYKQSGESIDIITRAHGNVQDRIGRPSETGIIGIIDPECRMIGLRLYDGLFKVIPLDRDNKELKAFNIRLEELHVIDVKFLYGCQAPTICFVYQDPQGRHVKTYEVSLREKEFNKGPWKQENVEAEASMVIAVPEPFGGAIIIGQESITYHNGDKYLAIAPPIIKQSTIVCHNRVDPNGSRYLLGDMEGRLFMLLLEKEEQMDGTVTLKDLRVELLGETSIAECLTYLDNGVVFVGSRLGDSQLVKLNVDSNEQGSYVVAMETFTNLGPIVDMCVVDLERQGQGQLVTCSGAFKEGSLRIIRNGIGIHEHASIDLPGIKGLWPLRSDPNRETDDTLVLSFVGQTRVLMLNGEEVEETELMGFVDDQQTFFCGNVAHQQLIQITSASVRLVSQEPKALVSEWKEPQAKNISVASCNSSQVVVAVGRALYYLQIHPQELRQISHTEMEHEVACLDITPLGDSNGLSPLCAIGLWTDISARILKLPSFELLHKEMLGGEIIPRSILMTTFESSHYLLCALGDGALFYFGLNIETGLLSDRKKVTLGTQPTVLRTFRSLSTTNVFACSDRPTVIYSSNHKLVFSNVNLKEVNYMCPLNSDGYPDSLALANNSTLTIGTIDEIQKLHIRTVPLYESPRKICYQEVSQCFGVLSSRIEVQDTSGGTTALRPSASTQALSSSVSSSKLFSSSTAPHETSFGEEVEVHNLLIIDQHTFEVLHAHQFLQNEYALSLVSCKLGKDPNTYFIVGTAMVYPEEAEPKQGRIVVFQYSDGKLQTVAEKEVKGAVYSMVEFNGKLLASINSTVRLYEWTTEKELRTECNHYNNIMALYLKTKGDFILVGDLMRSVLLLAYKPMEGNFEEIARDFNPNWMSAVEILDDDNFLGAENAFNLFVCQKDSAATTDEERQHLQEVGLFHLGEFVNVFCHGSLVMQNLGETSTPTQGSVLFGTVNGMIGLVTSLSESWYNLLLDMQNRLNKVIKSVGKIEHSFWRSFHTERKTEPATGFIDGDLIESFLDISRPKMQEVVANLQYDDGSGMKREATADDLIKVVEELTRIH
Chain of WIZ (Widely interspaced zinc finger) (O95785 whole entry): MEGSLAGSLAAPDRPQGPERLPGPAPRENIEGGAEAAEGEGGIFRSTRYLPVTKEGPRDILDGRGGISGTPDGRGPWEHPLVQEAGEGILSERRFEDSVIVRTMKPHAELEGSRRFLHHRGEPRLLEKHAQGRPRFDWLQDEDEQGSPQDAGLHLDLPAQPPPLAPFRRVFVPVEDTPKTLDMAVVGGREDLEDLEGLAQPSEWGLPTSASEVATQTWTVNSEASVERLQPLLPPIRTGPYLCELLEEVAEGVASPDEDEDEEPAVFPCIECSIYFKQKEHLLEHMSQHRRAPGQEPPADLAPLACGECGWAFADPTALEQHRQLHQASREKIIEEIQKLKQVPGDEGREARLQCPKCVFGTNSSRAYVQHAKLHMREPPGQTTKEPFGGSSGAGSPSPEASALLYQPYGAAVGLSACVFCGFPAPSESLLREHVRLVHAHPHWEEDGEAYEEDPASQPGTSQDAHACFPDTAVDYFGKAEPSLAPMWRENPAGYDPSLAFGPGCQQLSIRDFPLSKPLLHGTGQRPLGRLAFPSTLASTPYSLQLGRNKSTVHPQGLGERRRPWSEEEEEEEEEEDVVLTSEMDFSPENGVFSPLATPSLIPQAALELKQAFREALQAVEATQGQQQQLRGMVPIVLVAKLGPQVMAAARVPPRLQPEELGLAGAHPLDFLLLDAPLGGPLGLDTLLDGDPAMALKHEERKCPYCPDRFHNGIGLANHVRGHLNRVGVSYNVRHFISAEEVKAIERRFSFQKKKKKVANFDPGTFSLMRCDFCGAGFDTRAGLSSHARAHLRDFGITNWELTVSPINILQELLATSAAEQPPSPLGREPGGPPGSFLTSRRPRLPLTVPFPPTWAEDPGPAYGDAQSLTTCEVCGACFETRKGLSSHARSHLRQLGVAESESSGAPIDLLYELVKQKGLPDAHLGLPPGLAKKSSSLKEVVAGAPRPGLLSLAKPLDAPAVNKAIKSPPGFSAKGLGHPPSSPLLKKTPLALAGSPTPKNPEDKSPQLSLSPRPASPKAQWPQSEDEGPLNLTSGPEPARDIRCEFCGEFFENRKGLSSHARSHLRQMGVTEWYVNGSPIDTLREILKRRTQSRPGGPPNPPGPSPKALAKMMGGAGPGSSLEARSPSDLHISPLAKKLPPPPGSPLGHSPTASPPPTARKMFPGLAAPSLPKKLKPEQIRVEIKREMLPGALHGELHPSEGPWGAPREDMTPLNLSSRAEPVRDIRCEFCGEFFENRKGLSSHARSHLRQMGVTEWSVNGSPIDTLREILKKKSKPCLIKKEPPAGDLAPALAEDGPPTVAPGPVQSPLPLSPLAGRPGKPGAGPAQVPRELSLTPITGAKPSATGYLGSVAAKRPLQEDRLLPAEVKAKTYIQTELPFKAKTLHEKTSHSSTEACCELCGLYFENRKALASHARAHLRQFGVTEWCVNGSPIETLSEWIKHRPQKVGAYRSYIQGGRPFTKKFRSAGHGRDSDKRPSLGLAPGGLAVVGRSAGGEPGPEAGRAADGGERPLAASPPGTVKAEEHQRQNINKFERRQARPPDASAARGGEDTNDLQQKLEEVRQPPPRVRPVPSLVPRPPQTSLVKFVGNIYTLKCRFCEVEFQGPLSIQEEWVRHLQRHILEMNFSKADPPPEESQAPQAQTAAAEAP
Chain of WIZ (Widely interspaced zinc finger) (Q96SW2 whole entry): as the sequence (Q96SW2 whole entry, the tested form may be a part) above
Chain of WIZ (Widely interspaced zinc finger) (Q16531 whole entry partner): as the sequence (Q16531 whole entry partner, the tested form may be a part) above

Take `O=C1CCC(N2C(=O)c3cccc(Nc4cc5cnn(C6CCOCC6)c5cc4Oc4cccc(F)c4)c3C2=O)C(=O)N1` (stereo not drawn) [Compound 16, 2-(2,6-dioxopiperidin-3-yl)-4-((6-(3-fluorophenoxy)-1-(tetrahydro-2H-pyran-4-yl)-1H-indazol-5-yl)amino)isoindoline-1,3-dione]: the results for the EC50 in assay [1] and in assay [2] were below 10 nM and above 100 nM, respectively. Also, the activation at 1 µM in assay [3] was 66 to 100%.
Consider `Cc1cc(-c2cc3c(cc2Nc2cccc4c2C(=O)N(C2CCC(=O)NC2=O)C4=O)N(C)C(=O)CC3)c(F)cn1` (stereo not drawn) [Compound 46, 2-(2,6-dioxopiperidin-3-yl)-4-((6-(5-fluoro-2-methylpyridin-4-yl)-1-methyl-2-oxo-1,2,3,4-tetrahydroquinolin-7-yl)amino)isoindoline-1,3-dione], for which the EC50 was below 10 nM in assay [1] and below 30 nM in assay [2]. Besides, the activation at 1 µM in assay [3] is 66 to 100%.
On to `Cc1cc(-c2cc3c(cc2Nc2cccc4c2C(=O)N(C2CCC(=O)NC2=O)C4=O)N(C)C(=O)CC3)cc(C)n1` (stereo not drawn) [Compound 48, 4-((6-(2,6-dimethylpyridin-4-yl)-1-methyl-2-oxo-1,2,3,4-tetrahydroquinolin-7-yl)amino)-2-(2,6-dioxopiperidin-3-yl)isoindoline-1,3-dione], for which the EC50 in assay [1] is below 10 nM; in assay [2], below 30 nM. This molecule also yielded an activation at 1 µM in assay [3] of 66 to 100%.
On to `O=C1CCC(N2C(=O)c3cccc(Nc4cc5cnn(C6CCOCC6)c5cc4C4CC4)c3C2=O)C(=O)N1` (stereo not drawn) [Compound 10, 4-((6-cyclopropyl-1-(tetrahydro-2H-pyran-4-yl)-1H-indazol-5-yl)amino)-2-(2,6-dioxopiperidin-3-yl)isoindoline-1,3-dione], for which the EC50 in assay [1] is below 10 nM; in assay [2] it was above 100 nM. This molecule showed an activation at 1 µM in assay [3] of 66 to 100%.
Turning to `Cc1nccc(-c2cc3c(cc2Nc2cccc4c2C(=O)N(C2CCC(=O)NC2=O)C4=O)N(C)C(=O)CC3)c1Cl` (stereo not drawn) [Compound 47, 4-((6-(3-chloro-2-methylpyridin-4-yl)-1-methyl-2-oxo-1,2,3,4-tetrahydroquinolin-7-yl)amino)-2-(2,6-dioxopiperidin-3-yl)isoindoline-1,3-dione], the figures for the half-maximal effective concentration (EC50) in assay [1] and in assay [2] were below 10 nM and below 30 nM, respectively. Further, the activation at 1 µM in assay [3] was 66 to 100%.
As to `COc1cc(-c2ccccc2)c(Nc2cccc3c2C(=O)N(C2CCC(=O)NC2=O)C3=O)cn1` (stereo not drawn) [Compound 30, 2-(2,6-dioxopiperidin-3-yl)-4-((6-methoxy-4-phenylpyridin-3-yl)amino)isoindoline-1,3-dione], the DC50 in assay [1] was in the range of 10 to 100 nM; in assay [2], 30 to 100 nM. The same molecule yielded an activation at 1 µM in assay [3] below 33%.
Regarding `Cc1cc(-c2cc3c(cc2Nc2cccc4c2C(=O)N(C2CCC(=O)NC2=O)C4=O)nc(C)n3C)ccn1` (stereo not drawn) [Compound 23, 4-((1,2-dimethyl-6-(2-methylpyridin-4-yl)-1H-benzo[d]imidazol-5-yl)amino)-2-(2,6-dioxopiperidin-3-yl)isoindoline-1,3-dione], the DC50 in assay [1] is above 100 nM. This molecule came in with an EC50 in assay [2] above 100 nM. The activation at 1 µM in assay [3] was 33 to 66%.
`Cc1cc(-c2cc3c(cc2Nc2cccc4c2C(=O)N(C2CCC(=O)NC2=O)C4=O)c(C)nn3C)ccn1` (stereo not drawn) [Compound 3, 4-((1,3-dimethyl-6-(2-methylpyridin-4-yl)-1H-indazol-5-yl)amino)-2-(2,6-dioxopiperidin-3-yl)isoindoline-1,3-dione]: the DC50 in assay [1] was 10 to 100 nM. In assay [2], this molecule registered an EC50 below 30 nM. For the same molecule, the activation at 1 µM in assay [3] lay within 66 to 100%.
For the molecule `Cn1ncc2cc(Oc3ccccc3)c(Nc3cccc4c3C(=O)N(C3CCC(=O)NC3=O)C4=O)cc21` (stereo not drawn) [Compound 27, 2-(2,6-dioxopiperidin-3-yl)-4-((1-methyl-5-phenoxy-1H-indazol-6-yl)amino)isoindoline-1,3-dione], the DC50 in assay [1] fell in the range of 10 to 100 nM. The EC50 in assay [2] is above 100 nM. Further, the activation at 1 µM in assay [3] is below 33%.
Turning to `Cc1nccc(-c2cc3c(cnn3C)cc2Nc2cccc3c2C(=O)N(C2CCC(=O)NC2=O)C3=O)c1C` (stereo not drawn) [Compound 29, 4-((6-(2,3-dimethylpyridin-4-yl)-1-methyl-1H-indazol-5-yl)amino)-2-(2,6-dioxopiperidin-3-yl)isoindoline-1,3-dione], the DC50 in assay [1] fell in the range of 10 to 100 nM. The molecule also returned a 50% effective concentration (EC50) in assay [2] above 100 nM. The molecule further registered an activation at 1 µM in assay [3] below 33%.
With `Cc1cc(-c2cc3c(cc2Nc2cccc4c2C(=O)N(C2CCC(=O)NC2=O)C4=O)N(C)C(=O)CC3)ccn1` (stereo not drawn) [Compound 43, 2-(2,6-dioxopiperidin-3-yl)-4-((1-methyl-6-(2-methylpyridin-4-yl)-2-oxo-1,2,3,4-tetrahydroquinolin-7-yl)amino)isoindoline-1,3-dione], the EC50 was below 10 nM in assay [1] and below 30 nM in assay [2]. The molecule also gave an activation at 1 µM in assay [3] of 66 to 100%.
For the molecule `Cn1ncc2cc(Nc3cccc4c3C(=O)N(C3CCC(=O)NC3=O)C4=O)c(Oc3ccc(F)cc3)cc21` (stereo not drawn) [Compound 17, 2-(2,6-dioxopiperidin-3-yl)-4-((6-(4-fluorophenoxy)-1-methyl-1H-indazol-5-yl)amino)isoindoline-1,3-dione], the DC50 was 10 to 100 nM in assay [1] and 30 to 100 nM in assay [2]. The molecule further had an activation at 1 µM in assay [3] of 66 to 100%.
In turn, `Cc1cc(-c2cc3c(cc2Nc2cccc4c2C(=O)N([C@H]2CCC(=O)NC2=O)C4=O)N(C)C(=O)CC3)ccn1` [Compound 32, (S)-2-(2,6-dioxopiperidin-3-yl)-4-((1-methyl-6-(2-methylpyridin-4-yl)-2-oxo-1,2,3,4-tetrahydroquinolin-7-yl)amino)isoindoline-1,3-dione] registered an EC50 in assay [1] below 10 nM. Moreover, the DC50 in assay [2] was in the range of 30 to 100 nM. Moreover, the activation at 1 µM in assay [3] is 66 to 100%.
In the case of `Cn1ncc2cc(Nc3cccc4c3C(=O)N(C3CCC(=O)NC3=O)C4=O)c(Oc3cccc(Cl)c3)cc21` (stereo not drawn) [Compound 25, 4-((6-(3-chlorophenoxy)-1-methyl-1H-indazol-5-yl)amino)-2-(2,6-dioxopiperidin-3-yl)isoindoline-1,3-dione], in assay [1], the DC50 lay in the range of 10 to 100 nM. The EC50 in assay [2] was above 100 nM. The same molecule returned an activation at 1 µM in assay [3] of 33 to 66%.
In assay [1], `Cn1ncc2cc(Nc3cccc4c3C(=O)N(C3CCC(=O)NC3=O)C4=O)c(Oc3ccccc3)cc21` (stereo not drawn) [Compound 15, 2-(2,6-dioxopiperidin-3-yl)-4-((1-methyl-6-phenoxy-1H-indazol-5-yl)amino)isoindoline-1,3-dione] gave an EC50 below 10 nM. For the same molecule, the DC50 in assay [2] was in the range of 30 to 100 nM. Also, the activation at 1 µM in assay [3] lay in the range of 66 to 100%.
Take `Cn1ncc2cc(Nc3cccc4c3C(=O)N(C3CCC(=O)NC3=O)C4=O)c(-c3cccc(C(F)(F)F)c3)cc21` (stereo not drawn) [Compound 28, 2-(2,6-dioxopiperidin-3-yl)-4-((1-methyl-6-(3-(trifluoromethyl)phenyl)-1H-indazol-5-yl)amino)isoindoline-1,3-dione]: the DC50 in assay [1] was above 100 nM. The EC50 in assay [2] is above 100 nM. In assay [3], the activation at 1 µM was below 33%.
